Measurements taken from patent publication US11420969B2 (Exonate Limited, priority 2017, dated 2022).

Key:
CYP2C19 = biological target: T1, CYP2C19 (Homo sapiens, UniProt P33261); assay: CYP inhibition assay, human liver microsomes, substrate S-mephenytoin; format: in vitro ADME; details: human liver microsomes, 10 min incubation, LC-MS/MS; read-out: CYP Inhibition Activity (IC50/nM) CYP2C19
T1 construct: from tissue; host or cells: human liver microsomes
Procedure: (§1) 2 μL of test compound/Positive Inhibitor working solutions is then added to the reaction plate (2 μL/well). For control, 2 μL of Acetonitrile (ACN) containing DMSO (without inhibitor) is added to the reaction plate. 20 μL of substrate pool is added to all the wells of the reaction plate. The samples are mixed in a vortexer and pre-incubated at 37° C. for 20 min. The NADPH solution is pre-warmed at 37° C. for 5 min. 20 μL of pre-warmed NADPH solution is added to the reaction plate and then incubated at 37° C. for 10 min. The reaction is terminated by adding cold ACN (200 μL/well) to the reaction mixture and centrifuging at 4,000 rpm for 20 minutes. After centrifugation, supernatant is separated and analyzed by LC-MS/MS.
(§2) % inhibition and IC50 are calculated using Graphpad Prism software.

CYP2D6 = biological target: T2, CYP2D6 (Homo sapiens, UniProt P10635); assay: biochemical; format: in vitro ADME
T2 construct: from tissue; host or cells: human liver microsomes
Procedure: 158 μL of Human Liver Microsomes working stock solution is added to a reaction plate (0.253 mg/mL, 158 μL/well). 2 μL of test compound/Positive Inhibitor working solutions is then added to the reaction plate (2 μL/well). For control, 2 μL of Acetonitrile (ACN) containing DMSO (without inhibitor) is added to the reaction plate. 20 μL of substrate pool is added to all the wells of the reaction plate. The samples are mixed in a vortexer and pre-incubated at 37° C. for 20 min. The NADPH solution is pre-warmed at 37° C. for 5 min. 20 μL of pre-warmed NADPH solution is added to the reaction plate and then incubated at 37° C. for 10 min. The reaction is terminated by adding cold ACN (200 μL/well) to the reaction mixture and centrifuging at 4,000 rpm for 20 minutes. After centrifugation, supernatant is separated and analyzed by LC-MS/MS.
as §2

CYP3A4 = biological target: T3, CYP3A4 (Homo sapiens, UniProt P08684); assay: CYP inhibition assay, human liver microsomes, substrate midazolam; format: in vitro ADME; details: human liver microsomes, 10 min incubation, LC-MS/MS; read-out: CYP Inhibition Activity (IC50/nM) CYP3A4
T3 construct: from tissue; host or cells: human liver microsomes
Procedure: as §1, §2

SRPK1 = SRPK1 (Homo sapiens, UniProt Q96SB4); assay: In vitro SRPK1 assay (Kinase-Glo); format: biochemical
CYP2C9 = biological target: T4, CYP2C9 (Homo sapiens, UniProt P11712); assay: CYP inhibition assay, human liver microsomes, substrate diclofenac; format: in vitro ADME; details: human liver microsomes, 10 min incubation, LC-MS/MS; read-out: CYP Inhibition Activity (IC50/nM) CYP2C9
T4 construct: from tissue; host or cells: human liver microsomes
Procedure: as §1, §2

CYP1A2 = biological target: T5, CYP1A2 (Homo sapiens, UniProt P05177); assay: CYP inhibition assay, human liver microsomes, substrate tacrine; format: in vitro ADME; details: human liver microsomes, 10 min incubation, LC-MS/MS; read-out: CYP Inhibition Activity (IC50/nM) CYP1A2
T5 construct: from tissue; host or cells: human liver microsomes
T5 sequence (P05177 1-516): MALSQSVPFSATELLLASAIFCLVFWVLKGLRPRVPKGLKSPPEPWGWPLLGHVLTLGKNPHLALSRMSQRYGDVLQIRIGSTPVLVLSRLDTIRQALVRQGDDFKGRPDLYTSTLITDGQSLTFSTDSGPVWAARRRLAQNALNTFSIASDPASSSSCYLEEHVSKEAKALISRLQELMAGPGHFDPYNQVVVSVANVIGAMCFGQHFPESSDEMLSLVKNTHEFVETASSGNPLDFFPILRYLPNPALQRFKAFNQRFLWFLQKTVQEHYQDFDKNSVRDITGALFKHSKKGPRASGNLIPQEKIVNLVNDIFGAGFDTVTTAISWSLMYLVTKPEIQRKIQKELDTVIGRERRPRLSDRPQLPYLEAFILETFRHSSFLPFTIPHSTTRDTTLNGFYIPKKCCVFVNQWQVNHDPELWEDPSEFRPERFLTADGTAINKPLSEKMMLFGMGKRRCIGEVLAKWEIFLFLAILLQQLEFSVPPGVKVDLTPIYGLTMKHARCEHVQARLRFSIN
Procedure: as §1, §2

T3 sequence (P08684 whole entry): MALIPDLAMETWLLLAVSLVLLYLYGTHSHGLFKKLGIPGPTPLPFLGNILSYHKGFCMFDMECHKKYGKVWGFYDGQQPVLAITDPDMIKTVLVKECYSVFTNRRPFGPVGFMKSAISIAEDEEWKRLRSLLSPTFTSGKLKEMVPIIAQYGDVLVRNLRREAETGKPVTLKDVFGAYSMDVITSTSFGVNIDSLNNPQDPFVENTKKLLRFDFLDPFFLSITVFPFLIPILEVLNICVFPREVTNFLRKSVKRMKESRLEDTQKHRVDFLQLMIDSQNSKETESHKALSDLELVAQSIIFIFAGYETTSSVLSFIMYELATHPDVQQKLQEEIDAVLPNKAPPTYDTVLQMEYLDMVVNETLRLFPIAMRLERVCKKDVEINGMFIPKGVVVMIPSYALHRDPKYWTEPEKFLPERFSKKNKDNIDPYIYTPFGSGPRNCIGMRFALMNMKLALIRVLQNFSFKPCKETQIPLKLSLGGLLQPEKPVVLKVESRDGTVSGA
Chain of SRPK1 (Q96SB4 whole entry, species assumed): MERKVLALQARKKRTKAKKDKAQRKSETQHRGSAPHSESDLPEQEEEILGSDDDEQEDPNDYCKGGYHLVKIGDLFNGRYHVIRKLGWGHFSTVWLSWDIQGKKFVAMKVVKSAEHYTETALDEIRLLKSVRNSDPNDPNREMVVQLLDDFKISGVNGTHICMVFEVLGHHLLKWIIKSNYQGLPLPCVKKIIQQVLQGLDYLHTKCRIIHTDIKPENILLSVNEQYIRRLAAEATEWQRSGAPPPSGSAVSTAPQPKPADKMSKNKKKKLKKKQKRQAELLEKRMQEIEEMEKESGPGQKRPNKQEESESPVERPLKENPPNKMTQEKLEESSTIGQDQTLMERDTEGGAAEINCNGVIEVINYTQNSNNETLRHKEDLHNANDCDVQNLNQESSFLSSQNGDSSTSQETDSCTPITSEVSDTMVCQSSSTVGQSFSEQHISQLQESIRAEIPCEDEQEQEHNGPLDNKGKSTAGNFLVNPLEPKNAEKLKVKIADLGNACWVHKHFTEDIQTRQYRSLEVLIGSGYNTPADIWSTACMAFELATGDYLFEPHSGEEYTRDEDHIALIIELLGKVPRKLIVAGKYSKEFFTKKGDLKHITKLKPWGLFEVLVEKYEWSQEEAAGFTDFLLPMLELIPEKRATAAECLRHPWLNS
T2 sequence (P10635 whole entry): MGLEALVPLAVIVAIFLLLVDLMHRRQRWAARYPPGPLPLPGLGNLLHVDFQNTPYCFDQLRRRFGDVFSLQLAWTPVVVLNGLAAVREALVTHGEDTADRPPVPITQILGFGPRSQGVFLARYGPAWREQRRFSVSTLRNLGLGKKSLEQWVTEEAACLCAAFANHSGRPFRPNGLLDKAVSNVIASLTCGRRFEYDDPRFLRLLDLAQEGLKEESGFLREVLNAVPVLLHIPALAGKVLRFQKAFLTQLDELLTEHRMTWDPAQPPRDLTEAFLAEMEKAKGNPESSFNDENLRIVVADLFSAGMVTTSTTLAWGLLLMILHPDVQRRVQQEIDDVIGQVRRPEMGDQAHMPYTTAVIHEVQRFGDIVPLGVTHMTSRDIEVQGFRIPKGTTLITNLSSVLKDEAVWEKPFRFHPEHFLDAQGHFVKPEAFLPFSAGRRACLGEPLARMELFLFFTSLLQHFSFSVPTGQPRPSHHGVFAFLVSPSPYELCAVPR
T4 sequence (P11712 whole entry): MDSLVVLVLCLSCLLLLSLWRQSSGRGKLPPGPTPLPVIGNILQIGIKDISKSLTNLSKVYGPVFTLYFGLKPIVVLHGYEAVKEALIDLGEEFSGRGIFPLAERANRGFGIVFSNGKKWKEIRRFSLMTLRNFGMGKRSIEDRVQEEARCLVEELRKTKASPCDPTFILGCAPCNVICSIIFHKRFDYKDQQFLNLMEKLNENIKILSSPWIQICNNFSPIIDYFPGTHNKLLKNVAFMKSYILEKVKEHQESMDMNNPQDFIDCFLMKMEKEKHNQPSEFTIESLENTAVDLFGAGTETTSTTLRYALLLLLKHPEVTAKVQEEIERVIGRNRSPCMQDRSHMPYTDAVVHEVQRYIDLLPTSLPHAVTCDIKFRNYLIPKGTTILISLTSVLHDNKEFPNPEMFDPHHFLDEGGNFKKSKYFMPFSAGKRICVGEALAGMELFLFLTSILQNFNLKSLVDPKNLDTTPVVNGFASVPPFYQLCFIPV
T1 sequence (P33261 whole entry): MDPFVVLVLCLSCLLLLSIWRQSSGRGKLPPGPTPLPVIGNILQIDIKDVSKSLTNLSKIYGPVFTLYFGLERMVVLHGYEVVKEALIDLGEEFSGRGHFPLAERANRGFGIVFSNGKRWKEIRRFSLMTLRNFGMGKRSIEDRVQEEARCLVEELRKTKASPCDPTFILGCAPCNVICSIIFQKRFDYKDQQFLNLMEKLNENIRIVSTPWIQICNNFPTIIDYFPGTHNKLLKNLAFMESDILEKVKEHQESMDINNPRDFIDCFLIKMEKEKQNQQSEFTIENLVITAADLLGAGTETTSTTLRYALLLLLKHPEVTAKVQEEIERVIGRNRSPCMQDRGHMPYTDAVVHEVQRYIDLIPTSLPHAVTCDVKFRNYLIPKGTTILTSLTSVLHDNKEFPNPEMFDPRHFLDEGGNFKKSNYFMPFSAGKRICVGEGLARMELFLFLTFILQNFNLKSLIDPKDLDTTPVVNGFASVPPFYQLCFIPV

| IC50 (CYP2C19) | IC50 (CYP2D6) | IC50 (CYP3A4) | IC50 (SRPK1) | IC50 (CYP2C9) | IC50 (CYP1A2) | Structure (SMILES) |
| --- | --- | --- | --- | --- | --- | --- |
| 1190 nM | 0.01 µM | 1330 nM | 169 nM | 450 nM | 2810 nM | C[C@]1(O)CCN(c2ccc(C(F)(F)F)cc2NC(=O)c2ccc(-c3ccncc3)o2)C1 [Example 53, (S)-N-(2-(3-hydroxy-3-methylpyrrolidin-1-yl)-5-(trifluoromethyl)phenyl)-5-(pyridin-4-yl)furan-2-carboxamide] |
| 2180 nM | 5.13 µM | 670 nM | 0.5 nM | 660 nM | 8130 nM | CC1(O)CCN(c2ccc(Cl)cc2NC(=O)c2ccc(-c3ccncc3)o2)CC1 [Example 5, N-(5-chloro-2-(4-hydroxy-4-methylpiperidin-1-yl)phenyl)-5-(pyridin-4-yl)furan-2-carboxamide] |
| > 30000 nM | > 30 µM | > 30000 nM | 6 nM | > 30000 nM | > 30000 nM | CC1(C)CCN(c2ccc(C(F)(F)F)cc2NC(=O)c2ccc(C3CCOCC3)o2)CC1 [Example 29, N-(2-(4,4-dimethylpiperidin-1-yl)-5-(trifluoromethyl)phenyl)-5-(tetrahydro-2H-pyran-4-yl)furan-2-carboxamide] |
| 7160 nM | > 30 µM | 17100 nM | 19 nM | 12000 nM | 14400 nM | CC1(O)CCN(c2ccc(C3CC3)cc2NC(=O)c2ccccn2)CC1 [Example 3, N-(5-cyclopropyl-2-(4-hydroxy-4-methylpiperidin-1-yl)phenyl)-picolinamide] |
| 10300 nM | 11.6 µM | 2800 nM | 5.5 nM | 1000 nM | > 30000 nM | CC1(C(=O)N2CCOCC2)CCN(c2ccc(C(F)(F)F)cc2NC(=O)c2ccc(C3CCOCC3)o2)CC1 [Example 90, N-(2-(4-methyl-4-(morpholine-4-carbonyl)-piperidin-1-yl)-5-(trifluoromethyl)phenyl)-5-(tetrahydro-2H-pyran-4-yl)furan-2-carboxamide] |
| 20800 nM | 0.2 µM | 19000 nM | 41 nM | 14900 nM | > 30000 nM | CN(C)CC1(C)CCN(c2ccc(Cl)cc2NC(=O)c2ccc(C3CCOCC3)o2)CC1 [Example 91, N-(5-chloro-2-(4-((dimethylamino)methyl)-4-methylpiperidin-1-yl)phenyl)-5-(tetrahydro-2H-pyran-4-yl)furan-2-carboxamide] |

More lines, now with the values behind:

| Structure (SMILES) | IC50 (CYP2C19) | IC50 (CYP2D6) | IC50 (CYP3A4) | IC50 (SRPK1) | IC50 (CYP2C9) | IC50 (CYP1A2) |
| --- | --- | --- | --- | --- | --- | --- |
| CNCC1(C)CCN(c2ccc(C(F)(F)F)cc2NC(=O)c2ccc(C3CCOCC3)o2)CC1 [Example 82, N-(2-(4-methyl-4-((methylamino)methyl)-piperidin-1-yl)-5-(trifluoromethyl)phenyl)-5-(tetrahydro-2H-pyran-4-yl)furan-2-carboxamide] | 29200 nM | 2.8 µM | 6200 nM | 35 nM | > 30000 nM | > 30000 nM |
| O=C(Nc1cc(C(F)(F)F)ccc1N1CCC(O)CC1)c1ccc(-c2ccncc2)o1 [Example 32, N-(2-(4-hydroxypiperidin-1-yl)-5-(trifluoromethyl)-phenyl)-5-(pyridin-4-yl)furan-2-carboxamide] | 1100 nM | 2.1 µM | 4200 nM | 0.8 nM | 1500 nM | 2900 nM |
| CC1(O)CCN(c2ccc(OC(F)(F)F)cc2NC(=O)c2ccc(-c3ccncc3)o2)CC1 [Example 10, N-(2-(4-hydroxy-4-methylpiperidin-1-yl)-5-(trifluoromethoxy)phenyl)-5-(pyridin-4-yl)furan-2-carboxamide] | 2670 nM | 5.42 µM | 3780 nM | 6 nM | 1770 nM | 14400 nM |
| C[C@@]1(O)CCN(c2ccc(C(F)(F)F)cc2NC(=O)c2ccc(-c3ccncc3)o2)C1 [Example 52, (R)-N-(2-(3-hydroxy-3-methylpyrrolidin-1-yl)-5-(trifluoromethyl)phenyl)-5-(pyridin-4-yl)furan-2-carboxamide] | 540 nM | 0.15 µM | 1190 nM | 216 nM | 200 nM | 4360 nM |
| CN(C)C(=O)C1(C)CCN(c2ccc(C(F)(F)F)cc2NC(=O)c2ccc(-c3ccncc3)o2)CC1 [Example 74, N,N,4-trimethyl-1-(2-(5-(pyridin-4-yl)furan-2-carboxamido)-4-(trifluoromethyl)phenyl)-piperidine-4-carboxamide] | 2890 nM | 1.55 µM | 720 nM | 2.9 nM | 1130 nM | > 30000 nM |
| O=C(Nc1cc(C(F)(F)F)ccc1N1CCC(O)(CC2CC2)CC1)c1ccc(C2CCOCC2)o1 [Example 23, N-(2-(4-(cyclopropylmethyl)-4-hydroxypiperidin-1-yl)-5-(trifluoromethyl)phenyl)-5-(tetrahydro-2H-pyran-4-yl)furan-2-carboxamide] | 260 nM | 0.03 µM | 2650 nM | 64 nM | 220 nM | 2510 nM |
| CC1(C(=O)N2CCCCC2)CCN(c2ccc(C(F)(F)F)cc2NC(=O)c2ccc(C3CCOCC3)o2)CC1 [Example 89, N-(2-(4-methyl-4-(piperidine-1-carbonyl)-piperidin-1-yl)-5-(trifluoromethyl)phenyl)-5-(tetrahydro-2H-pyran-4-yl)furan-2-carboxamide] | 14100 nM | 18.9 µM | 2800 nM | 14 nM | 2500 nM | > 30000 nM |
| CC1(CO)CCN(c2ccc(Cl)cc2NC(=O)c2ccc(C3CCOCC3)o2)CC1 [Example 68, N-(5-chloro-2-(4-(hydroxymethyl)-4-methyl-piperidin-1-yl)phenyl)-5-(tetrahydro-2H-pyran-4-yl)furan-2-carboxamide] | 11400 nM | 16.1 µM | 10900 nM | 1.2 nM | 2800 nM | > 30000 nM |
| CC1(O)CCN(c2ccc(C(F)(F)F)cc2NC(=O)c2ccc(C3CCOCC3)o2)CC1 [Example 11, N-(2-(4-hydroxy-4-methylpiperidin-1-yl)-5-(trifluoromethyl)-phenyl)-5-(tetrahydro-2H-pyran-4-yl)furan-2-carboxamide] | 10200 nM | 15.4 µM | 16300 nM | 3 nM | 9310 nM | 17900 nM |
| O=C(Nc1cc(C2CC2)ccc1N1CCCC(O)CC1)c1ccc(C2CCOCC2)o1 (racemic) [Example 49, N-(5-cyclopropyl-2-(4-hydroxyazepan-1-yl)phenyl)-5-(tetrahydro-2H-pyran-4-yl)furan-2-carboxamide] | 6730 nM | 21.2 µM | 17200 nM | 5.2 nM | 7250 nM | 7340 nM |
| Cc1ccc(N2CCC(C)(CO)CC2)c(NC(=O)c2ccc(C3CCOCC3)o2)c1 [Example 66, N-(2-(4-(hydroxymethyl)-4-methylpiperidin-1-yl)-5-methylphenyl)-5-(tetrahydro-2H-pyran-4-yl)furan-2-carboxamide] | 11400 nM | > 30 µM | > 30000 nM | 10 nM | 2000 nM | > 30000 nM |
